ChEMBL document CHEMBL1806478, “Synthesis of novel inhibitors of β-glucuronidase based on benzothiazole skeleton and study of their binding affinity by molecular docking” (Bioorg Med Chem, 2011)
The source made the active and inactive calls. No cut-off for these calls is given here.

How the values were obtained:
[1] = molecular target: T1, Beta-glucuronidase (Bos taurus) (UniProt A3KMY8); experiment: Inhibition of bovine liver beta glucuronidase assessed as p-nitrophenol formation at 0.2 mM after 30 mins by spectrophotometric method
T1 sequence (whole entry): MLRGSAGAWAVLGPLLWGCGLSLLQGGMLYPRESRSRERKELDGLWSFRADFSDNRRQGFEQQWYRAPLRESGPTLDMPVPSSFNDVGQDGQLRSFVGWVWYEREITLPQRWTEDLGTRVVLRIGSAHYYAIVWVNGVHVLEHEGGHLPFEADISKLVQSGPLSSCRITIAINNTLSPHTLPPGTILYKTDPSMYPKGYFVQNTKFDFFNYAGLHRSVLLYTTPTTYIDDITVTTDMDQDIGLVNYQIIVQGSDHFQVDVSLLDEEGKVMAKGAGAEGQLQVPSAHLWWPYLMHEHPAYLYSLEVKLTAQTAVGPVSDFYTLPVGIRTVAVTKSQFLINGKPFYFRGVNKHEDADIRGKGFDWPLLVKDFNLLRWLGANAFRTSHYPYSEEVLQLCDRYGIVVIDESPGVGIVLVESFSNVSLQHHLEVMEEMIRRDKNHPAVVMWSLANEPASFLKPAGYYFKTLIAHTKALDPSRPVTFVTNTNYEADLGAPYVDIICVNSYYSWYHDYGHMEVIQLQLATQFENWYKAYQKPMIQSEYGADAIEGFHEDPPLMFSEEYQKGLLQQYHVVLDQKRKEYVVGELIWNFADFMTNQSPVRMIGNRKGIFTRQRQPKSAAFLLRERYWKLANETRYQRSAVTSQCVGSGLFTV

[2] = Inhibition of alpha-chymotrypsin
[3] = Inhibition of urease
[4] = molecular target: T1, Beta-glucuronidase (Bos taurus); experiment: (§1) Inhibition of bovine liver beta glucuronidase assessed as p-nitrophenol formation after 30 mins by spectrophotometric method
Beta-glucuronidase = molecular target: T2, Beta-glucuronidase (Bos taurus, UniProt A3KMY8); experiment: as §1
T2 sequence (A3KMY8 whole entry): T1 sequence (whole entry)

3T3-L1 = experiment: Cytotoxic activity against mouse 3T3L1 cells assessed as cell viability at 1 to 20 ug/ml after 48 hrs by MTT assay; format: cell-based; details: 3t3-l1, 48 h
CC-1 = experiment: Cytotoxic activity against Wistar rat CC1 cells assessed as cell viability at 1 to 20 ug/ml after 48 hrs by MTT assay; format: cell-based; details: cc-1, 48 h
[5] = molecular target: T1, Beta-glucuronidase (Bos taurus); experiment: Ratio of D-saccharic acid 1,4-lactone IC50 to compound IC50 for bovine liver beta glucuronidase

inhibition [1] [%]	inhibition [2]	inhibition [3]	inhibition [4]	IC50 (Beta-glucuronidase) [µM]	Ratio IC50 [5]	Structure (SMILES)	Activity (3T3-L1)	Activity (CC-1)
< 50	inactive	inactive				c1ccc2sc(-c3ccncc3)nc2c1		
	inactive	inactive	inactive			Fc1ccccc1-c1nc2ccccc2s1		
	inactive	inactive	inactive			c1cncc(-c2nc3ccccc3s2)c1		
	inactive	inactive		8.9		Oc1ccc(O)c(-c2nc3ccccc3s2)c1	Non-toxic	Non-toxic
	inactive	inactive	inactive			Brc1ccc(-c2nc3ccccc3s2)cc1		
	inactive	inactive	inactive			CCOc1ccc(-c2nc3ccccc3s2)cc1		
	inactive	inactive		19.4		Oc1ccc(-c2nc3ccccc3s2)c(O)c1	Non-toxic	Non-toxic
	inactive	inactive		2.26	24	Oc1cc(O)c(-c2nc3ccccc3s2)cc1O	Non-toxic	Non-toxic
	inactive	inactive	inactive			CCOc1cccc(-c2nc3ccccc3s2)c1O		
	inactive	inactive	inactive			Clc1ccc(-c2nc3ccccc3s2)c(Cl)c1		
< 50	inactive	inactive				Cc1ccc(-c2nc3ccccc3s2)cc1		
< 50	inactive	inactive				Clc1ccc(-c2nc3ccccc3s2)cc1		
< 50	inactive	inactive				c1csc(-c2nc3ccccc3s2)c1		
	inactive	inactive		8.9		Oc1ccc(-c2nc3ccccc3s2)cc1	Non-toxic	Non-toxic
< 50	inactive	inactive				Oc1cccc(-c2nc3ccccc3s2)c1O		
< 50	inactive	inactive				Clc1ccc(-c2nc3ccccc3s2)cc1Cl		
< 50	inactive	inactive				Oc1ccc(Cl)cc1-c1nc2ccccc2s1		
	inactive	inactive		94		Oc1ccc(-c2nc3ccccc3s2)cc1O	Non-toxic	Non-toxic
	inactive	inactive		36.1		Oc1cccc(-c2nc3ccccc3s2)c1	Non-toxic	Non-toxic
	inactive	inactive	inactive			COc1ccc(-c2nc3ccccc3s2)cc1OC		
< 50	inactive	inactive				Clc1cccc(-c2nc3ccccc3s2)c1		
< 50	inactive	inactive				COc1cccc(-c2nc3ccccc3s2)c1O		
	inactive	inactive	inactive			CN(C)c1ccc(-c2nc3ccccc3s2)cc1		
	inactive	inactive		4.23	12	Oc1ccccc1-c1nc2ccccc2s1	Non-toxic	Non-toxic
< 50	inactive	inactive				Cc1ccccc1-c1nc2ccccc2s1		
< 50	inactive	inactive				c1ccc2cc(-c3nc4ccccc4s3)ccc2c1		
